Measurements reported in patent publication US8784804B2, “Nutraceutical composition that comprises extract of andean shilajit, for preventing and/or treating neurodegenerative diseases and/or the cognitive deterioration associated with cerebral aging” (Centro Internacional de Biomedicina (ICC), priority 2009, dated 2014).

Tested on: neuroblastoma cells (N-115 cell line)
Experiment: Shilajit's toxicity in nerve cell culture (MTT assay, calcein-AM)
Format: cell-based
Settings: 10 mM H2O2, positive control of neuronal death
Procedure: The toxicity of the composition's main component was determined, whose toxicity in nerve cells was unknown up to now. This study consisted in the application of concentrations ranging from 10 to 50 mg/mL to a culture of neuroblastoma cells (N-115 cell line) (MTT assay) and subsequent observation of neuronal death through fluorescent microscopy using the calcein-AM method that determines the morphologic integrity.

In the case of OO [H2O2], the “% neuronal death” value is reported as 100.0% and the A550 is reported as 0.050.
